Experiments:
miR-193a = miR-193a expression levels in Fadu cells by quantitative real-time PCR; type: cell-based, Homo sapiens; conditions: 5 μM, 48 hours, U6 normalization, vs 0.01% DMSO control
Description: FIG. 8 includes a vertical bar graph showing Real-time analysis of miRNA expression patterns in Fadu Cells. The expression levels of miRNAs; hsa-mir193a were analysed using Quantitative real-time PCR, following 5-aza-2′ -deoxycytidine cell treatment. Data represented as average of three independent experiments conducted in triplicates (mean±SD) and U6 was used as normalization. Statistical significance determined by a two-tailed Student's t-test. Significance was determined as follows: ***P<0.01.
miRNA was isolated using mirVana™ miRNA Isolation Kit (Ambion®) according the manufacturer's protocol, the mirVana™ kit utilizes two sequential GFFs, since the small […]
The concentration and purity of miRNA was assessed using NanoDrop™ lite spectrophotometer (NanodropTechnologies, Willmington, Del., USA). miRNA expression profiling was performed using the TaqMan microRNA arrays system (Applied Biosystems) with specific TaqMan primers and probes for miR-193a. cDNA was generated using TaqMan microRNA assay using Primers for the mir-193a with FAM/MGB. […] Real time PCR was carried out with Rotor Gene 6000 Real-Time PCR Machine-Bosch-Bosch, results were analyzed with delta delta Ct (ΔΔCt) method using the rotor Gene 6000 Real-Time PCR software. […]
miRNA were isolated, quantified, profiled and cDNA was generated. […]

Fadu cells [1] = assay: Fadu xenograft tumor growth in athymic nude mice; type: in vivo; conditions: tumors harvested 21 days post treatment, P<0.0001
Description: FIG. 6 includes a graph presenting data from 16 athymic nude male mice which were subcutaneously injected with 1×10^6 Fadu cells. When the tumors reached a volume of 200 mm^3 the mice were divided into 2 groups of 8 mice each, with a similar dispersal of tumor volumes. Mice were injected once a week with intraperitoneal (IP) injection of either PBS×1 to the control group, or 1×10^10 vp AD-miR-193a, for 3 weeks. During the experiments, tumor volumes were measured twice a week using caliber meter. The results presented are the mean±SE. n=8 mice per experimental group.
FIGS. 7A-7B include vertical bar graphs showing the effect of miR-193a on final tumor weight (7A) and volume (7B). The results presented are the mean±SE. n=8 tumors per experimental group. Statistical significance for tumor weight determined by Mann-Whitney and for tumor volume by two-tailed Student's t-test (treatment vs. control). ***P<0.01.
Xenograft animal model were generated via injection of 1×10^6 Fadu cells in Matrigel subcutaneous in athymic nude mice immunodeficient mice. When the tumors reached a volume of 200 mm^3 the mice were divided into 2 groups of 8 mice each, with a similar dispersal of tumor volumes. […]
Tumors were measured by electronic calliper, once a week. 21 days post treatment the tumors were harvested and weight was measured.
The animals were sacrificed, and the tumors were removed, weighed and measured. […]

Fadu cells [2] = assay: XTT cell viability after transient transfection of Fadu cells; type: cell-based; conditions: 1 μg plasmid, 48 hours post transfection, viability reduced to
Description: FIG. 2 includes a vertical bar graph of cell viability following miR-193a-5p plasmid transfection. Squamous cancer cells Fadu were transfected with pCMV-miR-193a, or with p-CMV-GFP (MOC plasmid), 48 hours post transfection. cell viability was detected by XTT. Presented data are means±SD of three experiments, each conducted in eight replicates, and are expressed as percentages of the respective control. ***P<0.001(Dunnett's test).
FIG. 3 includes a vertical bar graph of cell viability following miR-193a-5p plasmid transfection time course experiment. Squamous cancer cells Fadu were transfected with miR-193a-5p or with MOC plasmid, 24 hours, 48 hours and 72 hours post transfection. cell viability was detected by XTT. Presented data are means±SD of three experiments, each conducted in eight replicates, and are expressed as percentages of the respective control. Statistical significance determined by a two-tailed student's t-test. Significance was determined as follows: *P<0.05, **P<0.01 and ***P<0.001.
Fadu Cells were seeded in a 96 well plate (3×10^4 cells/well). […]
At the end of treatment, cell viability was measured using XTT. The data presented are average of at least three independent experiments; 8 repeats each (means±SEM), and are expressed as percentage of the respective vehicle treated control. […]

Molecule	Increase in miR-193a expression levels (miR-193a) [folds]	Final tumor volume vs control (Fadu cells [1])	Final tumor weight vs control (Fadu cells [1])	Cell viability (XTT), percentage of control (Fadu cells [2]; first experiment)	Cell viability (XTT), percentage of control (Fadu cells [2]; second and third experiment) [%]
Nc1ncn([C@H]2C[C@H](O)[C@@H](CO)O2)c(=O)n1 [5-aza, 5-aza-2′ -deoxycytidine]	132	–	–	–	–
miR-193a: Homo sapiens miR-193a, SEQ ID NO:1 UGGGUCUUUGCGGGCGAGAUGA; delivered as CMV plasmid or adenovirus AD-miR-193a (listed as Homo sapiens)	–	significantly reduced	significantly reduced	approximately 70%	~40

— patent publication US20220296629A1, “HUMAN HEAD AND NECK CANCER TREATMENT” (CARMEL HAIFA […] CORPORATION LTD., priority 2019, published 2022)
